Experimental data taken from PMC3751577, “Three-stage biochemical selection: cloning of prototype class IIS/IIC/IIG restriction endonuclease-methyltransferase TsoI from the thermophile Thermus scotoductus” (BMC Molecular Biology, 2013).

How the values were obtained:
TsoI [1] = molecular target: T1, TsoI (Thermus scotoductus, UniProt T1RQY5); assay: DNA cleavage assay on lambda DNA, agarose gel; type: biochemical; conditions: activator, putative allosteric; weak stimulation of REase; 50 uM effector; 10 mM MgCl2, pH 7.5, 55°C, 30 min
T1 construct: gene tsoIRM; native (wt) full-length enzyme purified to homogeneity from T. scotoductus; monomer
T1 sequence (T1RQY5 1-1116): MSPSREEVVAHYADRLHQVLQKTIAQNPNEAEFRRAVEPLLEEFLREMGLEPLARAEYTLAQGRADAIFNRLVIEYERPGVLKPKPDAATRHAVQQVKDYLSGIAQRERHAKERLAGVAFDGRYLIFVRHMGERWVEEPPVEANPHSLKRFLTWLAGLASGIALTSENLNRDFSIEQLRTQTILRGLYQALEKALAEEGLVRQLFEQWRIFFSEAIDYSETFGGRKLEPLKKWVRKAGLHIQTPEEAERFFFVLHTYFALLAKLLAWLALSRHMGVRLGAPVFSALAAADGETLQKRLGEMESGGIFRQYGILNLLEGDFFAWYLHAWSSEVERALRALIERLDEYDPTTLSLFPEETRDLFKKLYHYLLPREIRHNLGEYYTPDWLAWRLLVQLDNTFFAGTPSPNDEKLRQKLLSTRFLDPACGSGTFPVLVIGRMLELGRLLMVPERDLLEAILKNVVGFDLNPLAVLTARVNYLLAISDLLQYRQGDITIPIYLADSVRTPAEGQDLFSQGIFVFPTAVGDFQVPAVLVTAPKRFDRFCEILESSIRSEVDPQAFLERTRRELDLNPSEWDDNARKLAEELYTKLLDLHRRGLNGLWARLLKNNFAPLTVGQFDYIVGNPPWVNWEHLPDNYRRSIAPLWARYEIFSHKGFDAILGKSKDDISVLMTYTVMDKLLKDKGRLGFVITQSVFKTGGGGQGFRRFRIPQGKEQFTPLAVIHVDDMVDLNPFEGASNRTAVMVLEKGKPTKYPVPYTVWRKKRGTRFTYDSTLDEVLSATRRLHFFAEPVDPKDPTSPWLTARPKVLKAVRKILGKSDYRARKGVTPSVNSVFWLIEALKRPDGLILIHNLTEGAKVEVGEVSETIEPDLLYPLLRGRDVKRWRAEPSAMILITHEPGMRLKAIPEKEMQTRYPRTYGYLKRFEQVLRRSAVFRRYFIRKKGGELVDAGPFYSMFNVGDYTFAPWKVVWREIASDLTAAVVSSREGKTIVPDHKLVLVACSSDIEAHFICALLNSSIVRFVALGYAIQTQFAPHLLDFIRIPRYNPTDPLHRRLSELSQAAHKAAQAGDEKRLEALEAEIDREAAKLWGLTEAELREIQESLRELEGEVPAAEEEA

TsoI [2] = molecular target: T1, TsoI; assay: DNA cleavage assays on lambda DNA and single-site PCR substrate, agarose gel; type: biochemical; conditions: activator, putative allosteric; weak stimulation of REase; 50 uM effector; 10 mM MgCl2, pH 7.5, 55°C, 30 min or 16 h

Row | Structure (SMILES) | DNA cleavage assay on lambda DNA, agarose gel (TsoI [1]) | DNA cleavage assays on lambda DNA and single-site PCR substrate, agarose gel (TsoI [2])
1 | Nc1ncnc2c1ncn2[C@@H]1O[C@H](CSCC[C@H](N)C(=O)O)[C@@H](O)[C@H]1O [SAH] | activation of REase function by SAM, SIN and SAH is weak, but detectable | –
2 | Nc1ncnc2c1ncn2[C@@H]1O[C@H](C[C@@H](N)CC[C@H](N)C(=O)O)[C@@H](O)[C@H]1O [SIN] | activation of REase function by SAM, SIN and SAH is weak, but detectable | –
3 | C[S+](CC[C@H](N)C(=O)O)C[C@H]1O[C@@H](n2cnc3c(N)ncnc32)[C@H](O)[C@@H]1O (stereo partly drawn) [SAM] | – | activation of REase function by SAM, SIN and SAH is weak, but detectable
